The subject of assay [1] is dandelion leaf explants. As to the kind of experiment: Effect of maltose on shoot regeneration in shoot induction media. It counts as cell-based. Particulars: 1% maltose (w/v) in shoot induction media. The procedure: Leaf explants derived from dandelion plants were cultured in shoot induction media containing no maltose (w/v) or 1% maltose (w/v) to compare the efficacy of maltose on shoot production.

For assay [2] the following is noted: isolated from dandelion roots; cited from earlier work.
Assay [3] deals with dandelion leaf explants. In words: Effect of phyto-hormones on dandelion regeneration: adventitious shoot formation of leaf explants on seedling media. The format is cell-based. The conditions noted are these: for number of regenerated shoots per explant / percentage of leaf explants displaying adventitious shoot formation: four weeks. The procedure: Dandelion seeds are surface-sterilized in approximately 70% (volume/volume, v/v) ethanol for 30 sec in the bottle. The ethanol is removed and the seeds are soaked in approximately 1% (v/v) bleach with gentle agitation for about 15 minutes. The bleach is poured off and the […] are rinsed thoroughly about 3-4 times with sterilized distilled water. Seeds are germinated and in vitro cultured in the sterile bottles containing seedling medium (Table 1). Over one month-old seedlings are used as stock plants for leaf and root explants. The leaves and roots of stock plants are placed in a petri plate with droplets of sterile water. Explants of leaves (ca. 0.5 cm in diameter) and of roots (ca. 0.5 cm in length) were excised from dandelion plants. Approximately 15 to 20 explants per plate are positioned with the adaxial surface down onto pre-incubation medium (Table 2). The plates are incubated under mixed white and red lights for about 6 days at about 22° C. […] Parentheses indicate the number of regenerated shoots per explant.

Where [4] appears, read: 6-benzyladenine 0.25 mg/L, α-naphthalene acetic acid 0 mg/L.
Where [5] appears, read: 6-benzyladenine 0.25 mg/L, α-naphthalene acetic acid 0.1 mg/L.
Setting [6] is: 6-benzyladenine 0.25 mg/L, α-naphthalene acetic acid 0.5 mg/L.
Where [7] appears, read: 6-benzyladenine 0.25 mg/L, α-naphthalene acetic acid 1.0 mg/L.
The mark [8] stands for this setting: 6-benzyladenine 0.25 mg/L, α-naphthalene acetic acid 2.0 mg/L.
Setting [9] is: 6-benzyladenine 0.5 mg/L, α-naphthalene acetic acid 0 mg/L.
Setting [10] is: 6-benzyladenine 0.5 mg/L, α-naphthalene acetic acid 0.1 mg/L.
Where [11] appears, read: 6-benzyladenine 0.5 mg/L, α-naphthalene acetic acid 0.5 mg/L.
Setting [12] is: 6-benzyladenine 0.5 mg/L, α-naphthalene acetic acid 1.0 mg/L.
The mark [13] stands for this setting: 6-benzyladenine 0.5 mg/L, α-naphthalene acetic acid 2.0 mg/L.
Setting [14] is: 6-benzyladenine 1.0 mg/L, α-naphthalene acetic acid 0 mg/L.
Setting [15] is: 6-benzyladenine 1.0 mg/L, α-naphthalene acetic acid 0.1 mg/L.
[16] abbreviates: 6-benzyladenine 1.0 mg/L, α-naphthalene acetic acid 0.5 mg/L.
[17] abbreviates: 6-benzyladenine 1.0 mg/L, α-naphthalene acetic acid 1.0 mg/L.
Setting [18] is: 6-benzyladenine 1.0 mg/L, α-naphthalene acetic acid 2.0 mg/L.
Setting [19] is: 6-benzyladenine 2.0 mg/L, α-naphthalene acetic acid 0 mg/L.
Where [20] appears, read: 6-benzyladenine 2.0 mg/L, α-naphthalene acetic acid 0.1 mg/L.
Setting [21] is: 6-benzyladenine 2.0 mg/L, α-naphthalene acetic acid 0.5 mg/L.
[22] abbreviates: 6-benzyladenine 2.0 mg/L, α-naphthalene acetic acid 1.0 mg/L.
Where [23] appears, read: 6-benzyladenine 2.0 mg/L, α-naphthalene acetic acid 2.0 mg/L.

Regarding `OC[C@H]1O[C@H](O[C@H]2[C@H](O)[C@@H](O)C(O)O[C@@H]2CO)[C@H](O)[C@@H](O)[C@@H]1O` (mixture of isomers) [Maltose, maltose], in the assay on dandelion leaf explants [1], the “shoot production in comparison to no maltose” value is “improves shoot production”. Moreover, the “# of Shoots per Explants” value with dandelion leaf explants [1] (leaf explants) is on record as 25.

On to `CC1(C)CC[C@]2(C)CC=C3[C@]4(C)CC[C@H]5C(C)(C)[C@@H](O)CC[C@]5(C)[C@H]4CC[C@@]3(C)[C@@H]2C1` [taraxerol], for which the anti-tumor-promoting activity entry in assay [2] is “potent anti-tumor-promoting activity”.

In the case of 6-benzyladenine, the “suitability for shoot regeneration of dandelion” value with dandelion leaf explants [3] (1 or 2 mg/l 6-benzyladenine and 0.1 mg/l α-naphthalene acetic acid) is “most suitable for shoot regeneration”. The “number of regenerated shoots per explant” value in the assay with dandelion leaf explants [3] (setting [4]) is listed as “(21.2) shoots per explant”; in the assay on dandelion leaf explants [3] (setting [5]) it was “(16.3) shoots per explant”; in the assay on dandelion leaf explants [3] (setting [6]), “(12.0) shoots per explant”; with dandelion leaf explants [3] (setting [7]), “(24.5) shoots per explant”; in the assay with dandelion leaf explants [3] (setting [8]), “(3.6) shoots per explant”; in the assay with dandelion leaf explants [3] (setting [9]) it was “(17.4) shoots per explant”. The “number of regenerated shoots per explant” value in the assay with dandelion leaf explants [3] (setting [10]) is on record as “(23.8) shoots per explant”; in the assay on dandelion leaf explants [3] (setting [11]) it was “(23.7) shoots per explant”; in the assay on dandelion leaf explants [3] (setting [12]) it was “(21.7) shoots per explant”; with dandelion leaf explants [3] (setting [13]), “(3.2) shoots per explant”; in the assay on dandelion leaf explants [3] (setting [14]), “(17.4) shoots per explant”; in the assay with dandelion leaf explants [3] (setting [15]), “(25.1) shoots per explant”. The “number of regenerated shoots per explant” value with dandelion leaf explants [3] (setting [16]) is “(20.4) shoots per explant”; with dandelion leaf explants [3] (setting [17]), “(13.1) shoots per explant”; in the assay with dandelion leaf explants [3] (setting [18]), “(5.9) shoots per explant”; with dandelion leaf explants [3] (setting [19]) it was “(16.0) shoots per explant”; with dandelion leaf explants [3] (setting [20]), “(17.4) shoots per explant”; in the assay on dandelion leaf explants [3] (setting [21]), “(20.7) shoots per explant”. For the same compound, the “number of regenerated shoots per explant” value is reported as “(8.5) shoots per explant” in the assay on dandelion leaf explants [3] (setting [22]) and “(5.4) shoots per explant” in the assay on dandelion leaf explants [3] (setting [23]). In addition, the “percentage of leaf explants displaying adventitious shoot formation” value (shortened to “percentage”) in the assay on dandelion leaf explants [3] (setting [4]) was found to be 60.0%; in the assay with dandelion leaf explants [3] (setting [5]), 63.0%; in the assay on dandelion leaf explants [3] (setting [6]), 78.0%; in the assay on dandelion leaf explants [3] (setting [7]), 97.0%; in the assay on dandelion leaf explants [3] (setting [8]), 90.0%; in the assay on dandelion leaf explants [3] (setting [9]), 75.0%. Besides, the “percentage” value with dandelion leaf explants [3] (setting [10]) is on record as 99.9%; in the assay with dandelion leaf explants [3] (setting [11]), 99.9%; in the assay on dandelion leaf explants [3] (setting [12]) it was 88.0%; in the assay on dandelion leaf explants [3] (setting [13]), 40.0%; in the assay on dandelion leaf explants [3] (setting [14]), 85.0%; in the assay with dandelion leaf explants [3] (setting [15]) it was 99.9%. For the same compound, the “percentage” value was 99.9% in the assay on dandelion leaf explants [3] (setting [16]); 83.0% in the assay on dandelion leaf explants [3] (setting [17]); 99.9% with dandelion leaf explants [3] (setting [18]); 99.9% in the assay on dandelion leaf explants [3] (setting [19]); 99.9% with dandelion leaf explants [3] (setting [20]); 99.9% in the assay with dandelion leaf explants [3] (setting [21]). For the same compound, the “percentage” value in the assay with dandelion leaf explants [3] (setting [22]) and with dandelion leaf explants [3] (setting [23]) was 99.9% in each case.

Consider `C=C1CC[C@]2(C)CC[C@]3(C)[C@H](CC[C@@H]4[C@@]5(C)CC[C@H](O)C(C)(C)[C@@H]5CC[C@]43C)[C@H]2[C@@H]1C` [taraxasterol], for which the anti-tumor-promoting activity result in assay [2] was “potent anti-tumor-promoting activity”.
